From paper PMC9134403 (ACS Omega, 2022)

Target: mushroom tyrosinase (Agaricus bisporus, UniProt C7FF04)
Test: Kinetic analysis
Assay type: biochemical

mushroom tyrosinase, sequence (C7FF04 1-392): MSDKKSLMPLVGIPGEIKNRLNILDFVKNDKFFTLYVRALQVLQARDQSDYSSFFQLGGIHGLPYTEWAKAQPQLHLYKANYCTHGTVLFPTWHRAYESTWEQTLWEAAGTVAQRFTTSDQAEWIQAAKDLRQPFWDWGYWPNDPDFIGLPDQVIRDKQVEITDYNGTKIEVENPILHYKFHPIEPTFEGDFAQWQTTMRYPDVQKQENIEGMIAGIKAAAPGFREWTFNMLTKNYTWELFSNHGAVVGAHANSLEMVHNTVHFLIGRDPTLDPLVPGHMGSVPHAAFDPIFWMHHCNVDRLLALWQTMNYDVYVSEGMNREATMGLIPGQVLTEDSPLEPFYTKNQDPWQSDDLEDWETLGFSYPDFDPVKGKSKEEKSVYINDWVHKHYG

Ki: 1.98 µM | mode of inhibition (Lineweaver–Burk plot, Km increased, Vmax constant): competitive
Compound: O=[N+]([O-])c1cccc(-c2oc3cc(Br)cc(Br)c3c(=S)c2O)c1 [2n, 5,7-Dibromo-3-hydroxy-2-(3-nitrophenyl)-4H-chromene-4-thione]
